From patent US11850325B2, “Injectable, bioadhesive cryogel scaffolds for biomedical uses” (Northeastern University, priority 2019, dated 2023) come the findings set out here.

The conditions of the data set: mouse.

Protocol: All animal experiments were reviewed and approved by Institutional Animal Care and Use Committee (ICAUC; protocol 15-1248R) at Northeastern University (Boston, MA, USA). […] Anesthesia was achieved by isoflurane (2.5%) inhalation, followed by SC buprenorphine (0.02-0.05 mg/kg) administration. After inducing anesthesia, cryogels (4% total polymer concentration (w/v), 4×4×1 mm) were implanted via injection using a sterile 18-gauge needle.
The cryogels sterilized in 70% ethanol (v/v) for 20 minutes and under UV light. Cryogels were loaded into sterile syringes and sterile 18G needles. […] After 21 days post-implantation, animals were euthanized and the cryogels were retrieved along with the surrounding tissues for histological assessment, and placed in cold DPBS. Hydrogels used for biodegradation studies were thoroughly washed in distilled water, and excess tissue was carefully removed under a dissection microscope.
After explantation, samples were fixed in paraformaldehyde (4% v/v)) for 4 h, followed by overnight incubation in 30% sucrose (30% w/v) at 4° C. Samples were then embedded in OCT and flash frozen in liquid nitrogen. Frozen samples were sectioned using a Leica Biosystems CM3050 S Research Cryostat. 14-μm cryosections were obtained and mounted in positively charged slides using DPX mountant medium (Sigma). Slides were then processed for hematoxylin and eosin staining (Sigma) according to instructions from the manufacturer. Immunohistofluorescent staining was performed on mounted cryosections as previously reported.^15 Anti-CD3 [SP7] (ab16669), anti-CD206 (ab125212), anti-F480 were used as primary antibodies, and an Alexa Fluor 594-conjugated secondary antibody (Invitrogen) was used for detection. All sections were counterstained with DAPI (Invitrogen), and visualized on an AxioObserver Z1 inverted microscope.
In vivo injectability, bioadhesion, and immunohistology. Lastly, we characterized the in vivo biodegradation of HAGM and HPD cryogels, including their interactions with native tissues via subcutaneous implantation in a murine animal model. Sterile composite cryogels (HAGM and HPD, 4×4×1 mm) were suspended in 0.2 mL of PBS and were injected subcutaneously in the backs of C57BL/6J mice. After 21 days post-implantation, the mice were euthanized prior to cryogel retrieval, along with adjacent tissue. […] Explanted samples were then flash-frozen at an optimal cutting temperature (OCT) compound, cryosectioned into 14-μm slices, and mounted onto glass slides for histological examination.

For hyaluronic acid methacrylate [HAGM], for the setting “in vivo”, the “H&E staining, cell migration into explanted cryogels” value is recorded as “migration of predominantly non-inflammatory cells”; the “lymphocyte/leukocyte infiltration (CD3)” value is on record as “no significant local lymphocyte infiltration”; the “macrophage infiltration (CD206 and F480)” value was “some macrophages”. In addition, the “tissue integration and immunocytotoxicity” value (in vivo, sc) is given as “high tissue integration with no immunocytoxicity”. For the same substance, where the note is “sc”, the “in vivo biodegradation (visual inspection)” value is recorded as “no biodegradation”.
